{"source": "paper PMC12169662", "about": "“De Novo-Designed APC/C Inhibitors Provide a Rationale for Targeting RING-Type E3 Ubiquitin Ligases” (Journal of Medicinal Chemistry, 2025)", "origin": "cited, not measured here", "biological_target": "APC/C", "details": "determined by the same methodology; ref not given; read-out: K i of apcin; cited from earlier work", "experimental": "To quantify the inhibitory effectiveness of H6, its IC50 was determined. To this end, we performed in vitro APC/C ubiquitination assays in the presence of H6 titrated from 0.01 to 100 μM (Figure S17B). […] To distinguish between competitive and noncompetitive inhibition, we determin ...", "note": "pKi: −log10 of the molar value.", "data": [{"smiles": "Cc1ncc([N+](=O)[O-])n1CCOC(=O)NC(Nc1ncccn1)C(Cl)(Cl)Cl", "note": "(stereo not shown) [apcin]", "values": [{"measurement": "pKi", "result": 4.64}]}]}
